Values joined by “and” are separate entries in the source; they are usually repeats but may differ in a detail not shown here. Equal values may be shown once. Read-outs that look alike come from different tables or passages of the source.
Legend:
[1] = test system: Aurantiochytrium acetophilum HS399; details: for OCFA / Total Fatty Acids: 73 h, 10 L fermenter
Method: […] In this implementation, the pH can be maintained at 7±1 in respective treatments.
In one implementation, fermenters may be used to culture A. acetophilum HS399. […] In this implementation, two treatments using different cyanocobalamin concentrations (0.00185, 0 μM) are compared in duplicates.

[2] = test system: Aurantiochytrium acetophilum HS399; type: cell-based
Excerpt: In another implementation, a New Brunswick 10 L Bioflo Pro 300 fermenter (Eppendorf) can be used to provide an improvement in the productivity of OCFAs accumulation, previously identified in flasks and bubble columns. In this implementation, a bioprocess can be devised to incorporate one or more portions of one or more techniques described herein. […] As an example, in this implementation, the pH-auxostat is operated at a pH set point of 6.5 to mitigate propionic toxicity. […] A control treatment can be provided […] propionate, to be used as comparison. […] The fermenters are aerated at 0.5 vvm and are maintained at 27° C. under axenic conditions. […] This medium can also contain a trace element solution (25 ml/L) and vitamin solution (5 ml/L). The trace element solution contains (g/L): […] In this example, the fermenter is fed another 5-6 L of a medium containing (g/L): ammonium phosphate (2.5), ammonium hydroxide (29% pure) (15.2), corn syrup DE95 (1143). This medium can also contain a trace element solution (25 ml/L) and a vitamin solution (5 ml/L). In this example, this medium is fed in a DO-stat mode in response to dissolved oxygen values detected above 15% saturation. […] The pH is maintained at 5.8 using NaOH, while the batch ammonia is consumed. The pH can drift to higher values when the residual ammonia is substantially exhausted from the fermenter. […] Culture materials and media can be autoclaved (e.g., 121° C., 15 min) while separating the nitrogen and the carbon source. Foam can be controlled (e.g., automatically) through the addition of (<1 ml/L) Hodag antifoam. […] Residual glucose can be analyzed from culture supernatant (e.g., 5000 g; 5 min) using a colorimetric method based on glucose […] activity. Residual acetate and propionate can be analyzed by HPLC using an acceptable external standard.

[3] = test system: Aurantiochytrium acetophilum HS399
Method: The cultures are incubated in an orbital shaker at 180 rpm and 27° C.
Respective Erlenmeyer flasks contain 100 mL of a medium supplemented with (g/L): dextrose (100), ammonium acetate (4.6), NaCl (12.5), MgSO4 7H2O (2.5), KH2PO4 (0.5), KCl (0.5) and CaCl2 (0.1). This medium also contains trace element solution (5 ml/L) and vitamin solution (1 ml/L). The trace element solution contains (g/L): EDTA di-sodium salt (6), FeCl3 6H2O (0.29), […] (6.84), MnCl2 4H2O (0.86), ZnCl2 (0.06), CoCl2 6H2O (0.026), NiSO4 6H2O (0.052), CuSO4 5H2O (0.002), Na2MoO4H2O (0.005). The vitamin solution contains (mg/L): thiamine (100), biotin (0.5) and cyanocobalamin (0.5). All culture materials can be autoclaved (e.g., 121° C., 15 min) and the media can be filter sterilized before use. […] Daily samples are collected to analyze the cell dry weight, residual glucose, culture pH (see FIG. 9), and lipid and fatty acid composition of the cultures. Cell dry weights (CDW) can be analyzed by filtration (e.g., 0.2 μm filter media) using a vacuum, and washed with a solution of ammonium bicarbonate. Residual glucose can be analyzed using colorimetric methods based on glucose […] activity. Biomass for lipid analysis is centrifuged and washed using purified water. The washed biomass is freeze dried. Total lipids are analyzed using Folch method (AOAC 996.06) and the FAMES re analyzed by gas chromatography using nonadecanoic (C19:0) acid as an internal standard.

[4] = test system: Aurantiochytrium acetophilum HS399; assay: Propionic acid toxicity lethal threshold (Example 8); type: cell-based; details: for lethal threshold, Propionate Treatment (initial propionate): initial propionate approach, chronic, metric CDW, pH 6.4
mold and bacteria = details: low levels; cited from earlier work
[5] = 116 h, propionate 3 + 3 + 3 g/L
[6] = propionate 3 + 3 + 3 g/L (166 h)

In the case of CCC(=O)O [Propionate, propionic acid], the “less propionic acid consumed without cyanocobalamin” value ([1]; 10 L fermenters, pH-auxostat, 0 μM vs with cyanocobalamin) is reported as 30%, the OCFA ([1]; cyanocobalamin 0 μM) is reported as 52.0 % TFA and the “Total Fatty Acids” value ([1]; cyanocobalamin 0 μM) is reported as 56.9 % DW. The OCFA ([1]; cyanocobalamin 0.37 μM) was 52.6 ± 0.5 % TFA, the “Total Fatty Acids” value ([1]; cyanocobalamin 0.37 μM) was 54.7 ± 0.5 % DW and the Propionate deposition ([1]; cyanocobalamin 0 μM) was 65.7%. The gpropionate/gbiomass ([1]; cyanocobalamin 0 μM) was 0.14, the Propionate deposition ([1]; cyanocobalamin 0.37 μM) was 49.9% and the gpropionate/gbiomass ([1]; cyanocobalamin 0.37 μM) was 0.18 ± 0.01. For the same compound, the “time in which initial propionate is consumed” value ([1]; initial 3 g/L, pH 7±1, flask) was ≤ 72 h, the effect on growth [2] was “slightly inhibited” and the OCFAs ([2]; propionic acid titration) was 60 % TFA. For the same compound, the accumulated lipids ([2]; propionic acid titration) was 70 % DW, the average cumulative productivities ([2]; propionic acid titration) was “approximately 30 g/L/d” and the “productivity of OCFAs” value ([2]; propionic acid titration) was 10 g/L/day. For the same compound, the Cell dry weight ([2]; propionic acid titration, 10 L fermenter) was 170 g/L, the “consumption of propionic per gram of biomass” value ([2]; total consumed during process) was 0.155 g and the OCFA ([3]; 68 h, propionate 3 + 3 + 3 g/L) was 60.6 ± 0.4 % TFA. The “Total Fatty Acids” value ([3]; 68 h, propionate 3 + 3 + 3 g/L) was 40.7 ± 1.7 % DW, the OCFA ([3]; 68 h, propionate 3 + 3 g/L) was 60.9 ± 0.6 % TFA and the “Total Fatty Acids” value ([3]; 68 h, propionate 3 + 3 g/L) was 44.5 ± 4.5 % DW. For the same compound, the OCFA ([3]; 68 h, propionate 3 g/L) was 52.9 ± 7.3 % TFA, the “Total Fatty Acids” value ([3]; 68 h, propionate 3 g/L) was 45.1 ± 3.0 % DW and the “growth (cell dry weight)” value ([3]; 70 h, fed batching of 9 g/L propionate) was ~15 g/L. The “Total Fatty Acids” value ([3]; 96 h, propionate 3 + 3 + 3 g/L) was 56.3 ± 1.2 % DW, the “Total Lipids” value ([3]; 96 h, propionate 3 + 3 + 3 g/L) was 70.0 ± 1.0 % DW and the OCFA ([3]; 96 h, propionate 3 + 3 + 3 g/L (P9)) was 62.9 ± 0.2 % TFA. The OCFA ([3]; 96 h, propionate 3 + 3 + 3 g/L (P9), listed as propionate) was 62.4 % TFA, the “Total Fatty Acids” value ([3]; 96 h, propionate 3 + 3 g/L) was 62.5 ± 0.3 % DW and the “Total Lipids” value ([3]; 96 h, propionate 3 + 3 g/L) was 73.3 ± 1.5 % DW. For the same compound, the OCFA ([3]; 96 h, propionate 3 + 3 g/L (P6)) was 62.8 ± 0.2 % TFA, the OCFA ([3]; 96 h, propionate 3 + 3 g/L (P6), listed as propionate) was 62.4 % TFA and the OCFA ([3]; 96 h, propionate 3 g/L) was 24.0 ± 1.0 % TFA. For the same compound, the “Total Fatty Acids” value ([3]; 96 h, propionate 3 g/L) was 66.8 ± 4.8 % DW, the “Total Lipids” value ([3]; 96 h, propionate 3 g/L) was 81.0 ± 1.0 % DW and the OCFA [3, 5] was 60.8 ± 0.2 % TFA. The “Total Fatty Acids” value [3, 5] was 63.1 ± 2.0 % DW, the “Total Lipids” value [3, 5] was 74.0 ± 1.0 % DW and the OCFA ([3]; 116 h, propionate 3 + 3 + 3 g/L, listed as propionic acid) was 60.4 % TFA. For the same compound, the OCFA ([3]; 116 h, propionate 3 + 3 g/L) was 57.5 ± 1.4 % TFA, the “Total Fatty Acids” value ([3]; 116 h, propionate 3 + 3 g/L) was 70.8 ± 0.6 % DW and the “Total Lipids” value ([3]; 116 h, propionate 3 + 3 g/L) was 77.7 ± 0.6 % DW. The OCFA ([3]; 116 h, propionate 3 g/L) was 22.8 ± 0.8 % TFA, the “Total Fatty Acids” value ([3]; 116 h, propionate 3 g/L) was 71.7 ± 4.3 % DW and the “Total Lipids” value ([3]; 116 h, propionate 3 g/L) was 74.8 ± 0.3 % DW. For the same compound, the “non-lethal but growth inhibitory concentration” value ([3]; as low as, pH of 7) was 1 g/L, the “OCFA Productivity” value [3, 6] was 2.56 ± 0.04 g/L/day and the Propionate deposition [3, 6] was 39.5 ± 1.7%. The “OCFA Productivity” value ([3]; propionate 3 + 3 g/L (116 h)) was 2.89 ± 0.06 g/L/day, the Propionate deposition ([3]; propionate 3 + 3 g/L (116 h)) was 65.0 ± 0.6% and the “OCFA Productivity” value ([3]; propionate 3 g/L (96 h)) was 1.53 ± 0.02 g/L/day. For the same compound, the Propionate deposition ([3]; propionate 3 g/L (96 h)) was 57.0 ± 0.9%, the “OCFAs of total DW of algal product” value ([3]; three doses of 3 g/L, 60.4% OCFAs of the 63.1% TFA) was 38.1% and the “lethal threshold, Propionate Treatment (initial propionate)” value ([4]; listed as Propionic acid) was 20 g/L. The “lethal threshold, Propionate Treatment (initial propionate)” value ([4]; listed as propionate) was 20 g/L and 30 g/L, the “lethal threshold, Propionate Treatment” value ([4]; pH drift approach, acute, metric OUR, pH 5.3) was 2.3 ± 0.1 g/L and the “pH at which oxygen uptake rate dropped (tolerance limit)” value ([4]; residual propionate 2.3-2.4 g/L, pH ramp 7 to 4) was 5.3. For the same compound, the “level inhibiting growth of mold and bacteria” value (mold and bacteria) was < 1 % by weight.
